Laboratory results from ChEMBL document CHEMBL1201862, “PubChem BioAssay data set” (2004).
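Dose response: 5 concentrations. Exposure: 48 h. Format: 96-well plates. Endpoint: linear interpolation; highest concentration if not reached. Here, GI50 denotes the concentration required for 50% inhibition of growth.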 Calls of active or inactive are those of the source. Rule as the data show it: active = GI50 up to about 1.1 µM and inactive = higher.

Tests used:
Experiment in all cases: NCI tumour cell line growth inhibition, 48 h
[1] = test system: 786-0
[2] = test system: A498
[3] = test system: A549
[4] = test system: ACHN
[5] = test system: CCRF-CEM
[6] = test system: COLO 205
[7] = test system: DU-145
[8] = test system: EKVX
[9] = test system: HCC 2998
[10] = test system: HCT-116
[11] = test system: HCT-15
[12] = test system: HL-60
[13] = test system: HOP-62
[14] = test system: HOP-92
[15] = test system: HT-29
[16] = test system: Hs-578T
[17] = test system: IGROV-1
[18] = test system: K562
[19] = test system: KM12
[20] = test system: LOX IMVI
[21] = test system: M14
[22] = test system: MCF7
[23] = test system: MDA-MB-231
[24] = test system: MDA-MB-435
[25] = test system: MDA-N
[26] = test system: MOLT-4
[27] = test system: NCI-H226
[28] = test system: NCI-H23
[29] = test system: NCI-H460
[30] = test system: NCI-H522
[31] = test system: NCI/ADR-RES
[32] = test system: OVCAR-3
[33] = test system: OVCAR-4
[34] = test system: OVCAR-5
[35] = test system: OVCAR-8
[36] = test system: PC-3
[37] = test system: RPMI-8226
[38] = test system: RXF 393
[39] = test system: SF-268
[40] = test system: SF-295
[41] = test system: SF-539
[42] = test system: SK-MEL-28
[43] = test system: SK-MEL-2
[44] = test system: SK-MEL-5
[45] = test system: SK-OV-3
[46] = test system: SN12C
[47] = test system: SNB-19
[48] = test system: SNB-75
[49] = test system: SW-620
[50] = test system: T47D
[51] = test system: TK-10
[52] = test system: U-251
[53] = test system: UACC-62
[54] = test system: UO-31
[55] = test system: CAKI-1
[56] = test system: Malme-3M
[57] = test system: SR
[58] = test system: UACC-257

Measured: GI50

Cc1c(O)c(C)c2c(C)cn(C(=O)C(C)(C)C)c2c1C
inactive: [1] 15.2 µM | [2] 16.5 µM | [3] 22.9 µM | [4] 14.2 µM | [5] 19.8 µM | [6] 16.6 µM | [7] 20.8 µM | [8] 20 µM | [9] 31.3 µM | [10] 21 µM | [12] 18.7 µM | [13] 17.5 µM | [15] 17.3 µM | [16] 28.4 µM | [17] 21.6 µM | [18] 24 µM | [19] 14 µM | [20] 35 µM | [21] 16.7 µM | [22] 3.27 µM | [23] 15.2 µM | [24] 16.5 µM | [25] 21.2 µM | [26] 23 µM | [27] 12.1 µM | [28] 15.5 µM | [29] 29.5 µM | [30] 23.7 µM | [31] 34.1 µM | [32] 43.4 µM | [33] 12.6 µM | [34] 30.2 µM | [35] 20.1 µM | [36] 21.2 µM | [37] 29.6 µM | [38] 12.4 µM | [39] 31.4 µM | [40] 17.8 µM | [41] 16.4 µM | [42] 15.3 µM | [43] 28.2 µM | [44] 14.7 µM | [45] 22.2 µM | [46] 17.9 µM | [47] 24.8 µM | [49] 29.5 µM | [50] 23.5 µM | [51] 20.5 µM | [52] 27.3 µM | [53] 14.7 µM | [54] 27.9 µM
21.8 µM: [11]
active: [14] 0.0206 µM | [48] 0.0201 µM

CCCCCCCCCCOC1C(C(O)CNCCCN(C)C)OC2OC3(CCCCC3)OC21 (centres undefined)
1.69 µM: [11]
active: [14] 1.07 µM | [20] 1.09 µM | [48] 0.0491 µM | [57] 0.329 µM
inactive: [1] 1.9 µM | [3] 3.32 µM | [4] 2.81 µM | [55] 1.75 µM | [5] 1.71 µM | [6] 2 µM | [7] 3.35 µM | [8] 3.71 µM | [9] 2.57 µM | [10] 1.99 µM | [12] 1.69 µM | [13] 1.75 µM | [15] 1.62 µM | [16] 3.17 µM | [17] 1.93 µM | [18] 1.63 µM | [19] 1.51 µM | [21] 2 µM | [22] 2.07 µM | [23] 1.8 µM | [24] 2.03 µM | [25] 1.96 µM | [26] 1.77 µM | [56] 1.99 µM | [27] 18.5 µM | [28] 1.48 µM | [29] 1.97 µM | [30] 1.82 µM | [31] 3.31 µM | [32] 1.96 µM | [33] 2.04 µM | [34] 1.72 µM | [35] 2.39 µM | [36] 2.26 µM | [37] 1.94 µM | [38] 1.93 µM | [39] 2.17 µM | [40] 1.86 µM | [42] 1.66 µM | [43] 2.32 µM | [44] 1.89 µM | [45] 3.65 µM | [46] 2.33 µM | [47] 1.75 µM | [49] 1.74 µM | [50] 2.75 µM | [51] 3.21 µM | [52] 1.84 µM | [58] 4.05 µM | [53] 2.79 µM | [54] 2.37 µM

NCCCN(CCCN)CCN(CCN(CCCN)CCCN)CCN(CCCN)CCCN
inactive: [3] > 100 µM | [4] > 100 µM | [55] > 100 µM | [5] > 10 µM | [6] > 100 µM | [7] > 100 µM | [9] > 100 µM | [10] > 100 µM | [12] > 100 µM | [13] > 100 µM | [14] 82.2 µM | [15] > 100 µM | [16] 23.5 µM | [17] > 100 µM | [18] > 100 µM | [20] 67.8 µM | [21] > 100 µM | [22] > 100 µM | [23] > 100 µM | [24] > 100 µM | [25] > 100 µM | [26] > 10 µM | [27] > 100 µM | [28] > 100 µM | [29] > 100 µM | [30] 17 µM | [31] > 100 µM | [32] > 100 µM | [33] > 100 µM | [34] > 100 µM | [35] 44.6 µM | [36] > 100 µM | [37] > 100 µM | [40] 55.6 µM | [42] > 100 µM | [43] > 100 µM | [44] > 100 µM | [45] 48.4 µM | [46] > 100 µM | [47] > 100 µM | [48] 4.95 µM | [57] > 100 µM | [49] > 100 µM | [50] 58.3 µM | [51] > 100 µM | [52] 66.1 µM | [58] > 100 µM | [54] > 100 µM
> 100 µM: [11]
